Source: patent publication US9439888B2, “Tetrazolones as a carboxylic acid bioisosteres” (RIGEL PHARMACEUTICALS, INC., priority 2015, dated 2016)

Legend:
[1] = target: T1, angiotensin II receptor type 1 (AT1) (Homo sapiens, UniProt P30556); test: AT1 antagonist activity: inhibition of response to 3 nM angiotensin-II, intracellular Ca2+ by fluorimetry; format: cell-based; settings: HEK-293 cells expressing hAT1
T1 construct: expressed in transfected cells; host or cells: HEK-293
T1 sequence (P30556 1-359): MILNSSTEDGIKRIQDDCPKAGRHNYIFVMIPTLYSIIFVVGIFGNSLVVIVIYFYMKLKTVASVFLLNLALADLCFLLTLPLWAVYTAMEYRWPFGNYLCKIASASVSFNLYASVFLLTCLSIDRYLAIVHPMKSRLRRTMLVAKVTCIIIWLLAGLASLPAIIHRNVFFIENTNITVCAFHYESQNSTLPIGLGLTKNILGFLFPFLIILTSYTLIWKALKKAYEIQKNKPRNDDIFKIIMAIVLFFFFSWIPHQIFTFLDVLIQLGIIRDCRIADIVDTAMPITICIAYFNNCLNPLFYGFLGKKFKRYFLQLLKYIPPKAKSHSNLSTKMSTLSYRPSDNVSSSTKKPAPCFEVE

[2] = target: T2, retinoid X receptor alpha (RXRa) (Homo sapiens, UniProt P19793); test: RXRα agonist activity assay
T2 sequence (P19793 1-462): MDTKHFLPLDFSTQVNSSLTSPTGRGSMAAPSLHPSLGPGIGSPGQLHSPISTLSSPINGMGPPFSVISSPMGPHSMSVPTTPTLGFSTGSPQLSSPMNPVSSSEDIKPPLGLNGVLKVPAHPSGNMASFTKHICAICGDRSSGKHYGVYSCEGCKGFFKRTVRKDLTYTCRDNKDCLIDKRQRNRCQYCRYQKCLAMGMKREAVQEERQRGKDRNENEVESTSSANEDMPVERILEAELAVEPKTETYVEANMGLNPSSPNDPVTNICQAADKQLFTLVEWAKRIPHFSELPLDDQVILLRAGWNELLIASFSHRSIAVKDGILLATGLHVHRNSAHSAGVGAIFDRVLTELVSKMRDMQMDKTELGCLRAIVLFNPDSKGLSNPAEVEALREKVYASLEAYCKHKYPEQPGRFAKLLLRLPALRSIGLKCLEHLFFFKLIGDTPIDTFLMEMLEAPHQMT

Structure (SMILES) | IC50 [1] | Kb [1] | EC50 [2]
CCCc1nc2c(C)cc(-c3nc4ccccc4n3C)cc2n1Cc1ccc(-c2ccccc2-n2nn[nH]c2=O)cc1 [6t] | 1.7 nM | 0.14 nM | –
C=C(c1ccc(-n2nn[nH]c2=O)cc1)c1cc2c(cc1C)C(C)(C)CCC2(C)C [6u, 1-(4-(1-(3,5,5,8,8-pentamethyl-5,6,7,8-tetrahydronaphthalen-2-yl)vinyl)phenyl)-1,4-dihydro-5h-tetrazol-5-one] | – | – | 64 nM
